These results are taken from patent US20240336551A1, “BIODEGRADEBLE MATERIAL MANUFACTURING METHOD AND SYSTEM” (NOROO IC Co., Ltd., priority 2023, published 2024).

A short description of data set [1]: Degree of biodegradability: cumulative amount of CO2 generated over time (FIG. 4). From the text:
In describing the present invention, “biodegradable” refers to a definition based on ASTM […]-15 (Standard Test Method for Determination of Aerobic Biodegradation of Plastic Materials Under Controlled Composting Conditions, Incorporating Thermophilic Temperatures). […] This is a much faster biodegradation rate than that of poly (lactic acid) (PLA), which is a biodegradable polymer.

The test system of data set [2] is microorganisms. Kind of data set: Sterilization experiment, overall conclusion. The format is cell-based. The settings on record: conclusion drawn from Table 1. On the procedure:
(§1) Meanwhile, a sterilization experiment was conducted on ethyl 3-HP, a biodegradable material manufactured by the system of the present invention, and the data thereof is shown in Table 1 below. The sterilization experiment was conducted by a test method according to the KCL-FIR-1002:2021 standard.
From the above data, it can be confirmed that […].

Data set [3] has as its system (Bacillus cereus ATCC 11778). Kind of data set: Sterilization experiment (antimicrobial test, KCL-FIR-1002:2021): Bacillus cereus. The format is cell-based. The settings on record: after 24 hours, versus BLANK. The method, then: as §1
Data set [4] relates to Streptococcus (Bacillus cereus ATCC 11778). The data set is described as above. As to conditions: initial concentration 3.0*10^4 CFU/ml, BLANK 3.1*10^5. The class given is cell-based. On the procedure: as §1
The subject of data set [5] is Staphylococcus aureus ATCC 6538. Kind of data set: Sterilization experiment (antimicrobial test, KCL-FIR-1002:2021): Staphylococcus aureus. The format is cell-based. On the procedure:
as §1

The subject of data set [6] is Escherichia coli ATCC 25922. Description: Sterilization experiment (antimicrobial test, KCL-FIR-1002:2021): Escherichia coli. The class given is cell-based. On the procedure: as §1
Data set [7] has as its system Streptococcus mutans ATCC 25175. Kind of data set: Sterilization experiment (antimicrobial test, KCL-FIR-1002:2021): Streptococcus mutans. The format is cell-based. The method, then:
as §1

For data set [8], the system named is MRSA bacteria (Staphylococcus aureus subsp. aureus). Description: Sterilization experiment (antimicrobial test, KCL-FIR-1002:2021): MRSA bacteria. The class given is cell-based. The method, then:
as §1

As for `O=C(O)CCO` [3-HP, 3-hydroxy propionate], the “Biodegradability compared to PLA” value in data set [1] was “excellent biodegradability compared to PLA”. In addition, in data set [2], the “Bacteriostatic / sterilizing effect” value was “only the bacteriostatic effect and no sterilizing effect”.
With `CCOC(=O)CCO` [Ethyl 3-HP, ethyl 3-hydroxypropionate], the “Biodegradability compared to PLA” value in data set [1] is recorded as “excellent biodegradability compared to PLA”. Also, the Bacteriostatic reduction rate was 45.1% in data set [3]; 8.1% in data set [5] (after 24 hours, versus BLANK); 20% in data set [6] (after 24 hours, versus BLANK); 48.1% in data set [7] (after 24 hours, versus BLANK); 61.5% in data set [8] (after 24 hours, versus BLANK). Besides, the “Concentration after 24 hours” value in data set [4] is given as 1.7*10^5 CFU/ml; in data set [5] (initial concentration 3.4*10^4 CFU/ml, BLANK 3.7*10^5) it was 3.4*10^5 CFU/ml; in data set [6] (initial concentration 1.3*10^4 CFU/ml, BLANK 1.5*10^5) it was 1.2*10^5 CFU/ml; in data set [7] (initial concentration 2.6*10^4 CFU/ml, BLANK 2.7*10^5), 1.4*10^5 CFU/ml; in data set [8] (initial concentration 2.5*10^4 CFU/ml, BLANK 2.6*10^5) it was 1.0*10^5 CFU/ml.
